Measurements as given in US3972872A, “6-[α-(ω-Guanidinoalkanoylamido)acylamido]penicillanic acids” (Pfizer Inc., priority 1975, dated 1976).
Converted amounts (≈) assume the structure as drawn. Where two headings read alike, the source gives them in different places.

Columns and labels:
Proteus vulgaris A059 = assay: In vitro MIC, Proteus vulgaris A059; type: cell-based; settings: unit assumed
Excerpt: (§1) The in vitro spectra of a number of 6-[α-(ω-guanidinoalkanoylamido)acylamido]penicillanic acids of this invention against certain gram-negative bacteria are presented in Table I below. […] Th compounds of Table I have the formula

Proteus mirabilis C015 = assay: In vitro MIC, Proteus mirabilis C015; type: cell-based; settings: unit assumed
Excerpt: as §1

E. coli 266 = assay: In vitro MIC, E. coli 266, two-fold serial dilution; type: cell-based, Escherichia coli; settings: unit assumed
Excerpt: as §1

Pseudo. aeruginosa 104 = assay: In vitro MIC, Pseudo. aeruginosa 104; type: cell-based, Pseudomonas aeruginosa; settings: unit assumed
Excerpt: as §1

Serratia marcescens A001 = assay: In vitro MIC, Serratia marcescens A001; type: cell-based; settings: unit assumed
Excerpt: as §1

Pseudo. aeruginosa 490 = assay: In vitro MIC, Pseudo. aeruginosa 490; type: cell-based, Pseudomonas aeruginosa; settings: unit assumed
Excerpt: as §1

Pseudo. aeruginosa 173 = assay: In vitro MIC, Pseudo. aeruginosa 173; type: cell-based, Pseudomonas aeruginosa; settings: unit assumed
Excerpt: as §1

Escherichia coli 266 = assay: In vivo protection of mice versus Escherichia coli 266; settings: Escherichia coli, 266, sc, 96 h, read-out: % Protection
Excerpt: (§2) Additionally, the compounds of this invention are active versus gram-positive and gram-negative bacteria in vivo via the parenteral route of administration in animals, including man. Their in vivo activity in animals, including man, by the oral route of administration is more limited as regards susceptible organisms. Nevertheless, oral in vivo activity against Escherichia coli and Staphylococcus aureus is a common property of many compounds of this invention. Table II below presents the comparative in vivo spectra of several compounds within the scope of this invention against D-α-aminobenzylpenicillin (Ampicillin).
(§3) The acute systemic infections in mice were produced by the intraperitoneal inoculation of standardized cultures suspended in 5% hog gastric mucin. Treatment with the drugs was initiated 0.5 hours after inoculation of the infecting organism. A second dose was administered 4 hours later. The PD50 values were calculated after a hold period of 4 days.

Proteus mirabilis C020 = assay: In vitro MIC, Proteus mirabilis C020; type: cell-based; settings: unit assumed
Excerpt: (§4) The in vitro activity of the herein-described compounds renders them useful for topical application in the form of ointments, creams and the like, or for sterilization purposes, e.g., sick room utensils.
as §1

Proteus rettgeri B006 = assay: In vitro MIC, Proteus rettgeri B006; type: cell-based; settings: unit assumed
Excerpt: as §4, §1

E. coli = assay: PD50 versus acute systemic E. coli infection in mice; type: in vivo; settings: Escherichia coli, 96 h, E. coli, mice
Excerpt: as §2, §3

S. aureus = assay: PD50 versus acute systemic S. aureus infection in mice; type: in vivo; settings: Staphylococcus aureus, 96 h, S. aureus, mice
Excerpt: as §2, §3

P. aeruginosa = assay: PD50 versus acute systemic P. aeruginosa infection in mice; type: in vivo; settings: mice; for ED50: Pseudomonas aeruginosa, 96 h, P. aeruginosa, read-out: PD50
Excerpt: as §2, §3

[1] = 50 mg./kg., mice, subcutaneous route

| Structure (SMILES) | MIC (Proteus vulgaris A059) | MIC (Proteus mirabilis C015) | MIC (E. coli 266) | MIC (Pseudo. aeruginosa 104) | MIC (Serratia marcescens A001) | MIC (Pseudo. aeruginosa 490) | MIC (Pseudo. aeruginosa 173) | responders at 50 mg/kg (Escherichia coli 266) | MIC (Proteus mirabilis C020) | MIC (Proteus rettgeri B006) | responders at 50 mg/kg (Escherichia coli 266; [1]) | ED50 (E. coli; oral) | ED50 (E. coli; sc, subcutaneous) | ED50 (S. aureus; oral) | ED50 (S. aureus; sc, subcutaneous) | ED50 (P. aeruginosa; oral) | ED50 (P. aeruginosa; sc, subcutaneous) | activity against Pseudomonas aeruginosa (in words) (P. aeruginosa; in vivo) |
| --- | --- | --- | --- | --- | --- | --- | --- | --- | --- | --- | --- | --- | --- | --- | --- | --- | --- | --- |
| CNC(=N)NCC(=O)N[C@@H](C(=O)N[C@@H]1C(=O)N2[C@@H]1SC(C)(C)[C@@H]2C(=O)O)c1ccccc1 [CH2 --NH--C(NH)NHCH3, R=H] | 3.12 µg/mL (≈ 6.75 µM) | 1.56 µg/mL (≈ 3.37 µM) | 1.56 µg/mL (≈ 3.37 µM) | 1.56 µg/mL (≈ 3.37 µM) | 3.12 µg/mL (≈ 6.75 µM) | 0.78 µg/mL (≈ 1.69 µM) | 3.12 µg/mL (≈ 6.75 µM) | 100% |  |  |  |  |  |  |  |  |  |  |
| CC1(C)S[C@@H]2[C@H](NC(=O)[C@H](NC(=O)C3CCC(NC(=N)N)CC3)c3ccccc3)C(=O)N2[C@H]1C(=O)O (some centres unmarked) [NH--C(NH)NH2 [3rd of 4], R=H] | 50 µg/mL (≈ 96.8 µM) | 6.25 µg/mL (≈ 12.1 µM) | 6.25 µg/mL (≈ 12.1 µM) | 3.12 µg/mL (≈ 6.04 µM) | 12.5 µg/mL (≈ 24.2 µM) | 6.25 µg/mL (≈ 12.1 µM) | 1.56 µg/mL (≈ 3.02 µM) |  | 25 µg/mL (≈ 48.4 µM) | 50 µg/mL (≈ 96.8 µM) | 50% |  |  |  |  |  |  |  |
| CC1(C)S[C@@H]2[C@H](NC(=O)[C@H](NC(=O)CN3CCNC3=N)c3ccccc3)C(=O)N2[C@H]1C(=O)O [CH2 --N--C(NH)--NHCH2 CH2, R=H] | 6.25 µg/mL (≈ 13.2 µM) | 3.12 µg/mL (≈ 6.57 µM) | 6.25 µg/mL (≈ 13.2 µM) | 12.5 µg/mL (≈ 26.3 µM) | 12.5 µg/mL (≈ 26.3 µM) | 3.12 µg/mL (≈ 6.57 µM) | 12.5 µg/mL (≈ 26.3 µM) | 100% |  |  |  |  |  |  |  |  |  |  |
| CN(CC(=O)N[C@@H](C(=O)N[C@@H]1C(=O)N2[C@@H]1SC(C)(C)[C@@H]2C(=O)O)c1ccccc1)C(=N)N [CH2 N(CH3)--C(NH)NH2, R=H, 6-{D-2-Phenyl-2-[(1-Methylguanidino)Acetamido]Acetamido}-Penicillanic Acid] | 6.25 µg/mL (≈ 13.5 µM) | 6.25 µg/mL (≈ 13.5 µM) | 6.25 µg/mL (≈ 13.5 µM) | 50 µg/mL (≈ 108 µM) | 3.12 µg/mL (≈ 6.75 µM) | 3.12 µg/mL (≈ 6.75 µM) | 12.5 µg/mL (≈ 27 µM) | 60% | 6.25 µg/mL (≈ 13.5 µM) | 100 µg/mL (≈ 216 µM) |  |  |  |  |  |  |  |  |
| CC1(C)S[C@@H]2[C@H](NC(=O)[C@H](N)c3ccccc3)C(=O)N2[C@H]1C(=O)O [D-α-aminobenzylpenicillin, reference compound] | 6 µg/mL (≈ 17.2 µM) | 1.5 µg/mL (≈ 4.29 µM) | 3.1 µg/mL (≈ 8.87 µM) | 200 µg/mL (≈ 572 µM) | 200 µg/mL (≈ 572 µM) | 0.78 µg/mL (≈ 2.23 µM) | 200 µg/mL (≈ 572 µM) |  |  |  | 100% | 25 ± 13 mg/kg | 27 ± 9 mg/kg | 2.5 ± 0.7 mg/kg | 0.67 ± 0.4 mg/kg | > 200 mg/kg | > 200 mg/kg | inactive |
| CC1(C)S[C@@H]2[C@H](NC(=O)[C@H](NC(=O)CNC3=NCCN3)c3ccccc3)C(=O)N2[C@H]1C(=O)O [CH2 NH--.angle..vertline., R=H, 6-[D-2-Phenyl-2-(2-Imidazolinylaminoacetamido)Acetamido]Penicillanic Acid] | 3.12 µg/mL (≈ 6.57 µM) | 3.12 µg/mL (≈ 6.57 µM) | 12.5 µg/mL (≈ 26.3 µM) | 6.25 µg/mL (≈ 13.2 µM) | 25 µg/mL (≈ 52.7 µM) | 3.12 µg/mL (≈ 6.57 µM) | 3.12 µg/mL (≈ 6.57 µM) | 90% | 6.25 µg/mL (≈ 13.2 µM) | 100 µg/mL (≈ 211 µM) |  |  |  |  |  |  |  |  |
| CC1(C)S[C@@H]2[C@H](NC(=O)[C@H](NC(=O)c3ccc(NC(=N)N)cc3)c3ccccc3)C(=O)N2[C@H]1C(=O)O [NH--C(NH)NH2 [1st of 4], R=H] | 6.25 µg/mL (≈ 12.2 µM) | 3.12 µg/mL (≈ 6.11 µM) | 3.12 µg/mL (≈ 6.11 µM) | 0.78 µg/mL (≈ 1.53 µM) | 3.12 µg/mL (≈ 6.11 µM) | 0.78 µg/mL (≈ 1.53 µM) | 0.78 µg/mL (≈ 1.53 µM) |  | 12.5 µg/mL (≈ 24.5 µM) | 25 µg/mL (≈ 49 µM) | 10% |  |  |  |  |  |  |  |
